The supplement of paper PMC10307832

Tests used:
Experiment in all cases: relative viability (nuclei count vs DMSO), 5 days (fraction); higher = more cells survive
[1] = compound: CCN(CC)CCNC(=O)c1c(C)[nH]c(/C=C2\C(=O)Nc3ccc(F)cc32)c1C [Sunitinib] + CC(=O)Nc1cccc(-n2c(=O)n(C3CC3)c(=O)c3c(Nc4ccc(I)cc4F)n(C)c(=O)c(C)c32)c1 [Trametinib] (partner 0.02 µM)
Outline: (§1)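 Values are medians from duplicate plates. Each reflects relative viability, defined as the nuclei count of treated wells over that of vehicle wells. Lung cancer cell lines in 1536-well plates were pin-tool dosed one day after seeding with one drug alone or with a fixed anchor-drug dose plus five library-drug doses (not always all listed) in √10 steps, then fixed, stained and imaged at 4× after 5 days.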

[2] = compound: CCN(CC)CCNC(=O)c1c(C)[nH]c(/C=C2\C(=O)Nc3ccc(F)cc32)c1C [Sunitinib] + COc1cccc2cc(-c3nc([C@H]4CC[C@H](C(=O)O)CC4)n4ncnc(N)c34)[nH]c12 [OSI-027] (partner 0.5 µM)
Outline: as §1

[3] = compound: CCN(CC)CCNC(=O)c1c(C)[nH]c(/C=C2\C(=O)Nc3ccc(F)cc32)c1C [Sunitinib] + C[C@@H](Oc1cc(-c2cnn(C3CCNCC3)c2)cnc1N)c1c(Cl)ccc(F)c1Cl [Crizotinib] (partner 1 µM)
Outline: as §1

[4] = compound: CCN(CC)CCNC(=O)c1c(C)[nH]c(/C=C2\C(=O)Nc3ccc(F)cc32)c1C [Sunitinib] + N=C(N)NC(=N)NCCc1ccccc1 [Phenformin] (partner 250 µM)
Outline: as §1

PC-3 [JPC-3]
relative viability ([1]; first compound 0.02 µM): 0.754
relative viability ([1]; first compound 0.06325 µM): 0.715
relative viability ([1]; first compound 0.2 µM): 0.667
relative viability ([1]; first compound 0.6325 µM): 0.772
relative viability ([1]; first compound 2 µM): 0.59
relative viability ([2]; first compound 0.02 µM): 0.807
relative viability ([2]; first compound 0.06325 µM): 0.773
relative viability ([2]; first compound 0.2 µM): 0.743
relative viability ([2]; first compound 0.6325 µM): 0.82
relative viability ([2]; first compound 2 µM): 0.754
relative viability ([3]; first compound 0.02 µM): 1.03
relative viability ([3]; first compound 0.06325 µM): 0.943
relative viability ([3]; first compound 0.2 µM): 1.01
relative viability ([3]; first compound 0.6325 µM): 1.02
relative viability ([3]; first compound 2 µM): 0.984
relative viability ([4]; first compound 0.02 µM): 0.478
relative viability ([4]; first compound 0.06325 µM): 0.484
relative viability ([4]; first compound 0.2 µM): 0.471
relative viability ([4]; first compound 0.6325 µM): 0.502
relative viability ([4]; first compound 2 µM): 0.468

PC-14
relative viability ([1]; first compound 0.02 µM): 0.665
relative viability ([1]; first compound 0.06325 µM): 0.743
relative viability ([1]; first compound 0.2 µM): 0.833
relative viability ([1]; first compound 0.6325 µM): 0.771
relative viability ([1]; first compound 2 µM): 0.579
relative viability ([2]; first compound 0.02 µM): 0.716
relative viability ([2]; first compound 0.06325 µM): 0.893
relative viability ([2]; first compound 0.2 µM): 1.02
relative viability ([2]; first compound 0.6325 µM): 0.795
relative viability ([2]; first compound 2 µM): 0.695
relative viability ([3]; first compound 0.06325 µM): 0.863
relative viability ([3]; first compound 0.2 µM): 1.08
relative viability ([3]; first compound 0.6325 µM): 0.921
relative viability ([3]; first compound 2 µM): 0.816
relative viability ([4]; first compound 0.02 µM): 0.557
relative viability ([4]; first compound 0.06325 µM): 0.552
relative viability ([4]; first compound 0.2 µM): 0.674
relative viability ([4]; first compound 0.6325 µM): 0.568
relative viability ([4]; first compound 2 µM): 0.571

RERF-LC-KJ
relative viability ([1]; first compound 0.02 µM): 0.903
relative viability ([1]; first compound 0.06325 µM): 0.854
relative viability ([1]; first compound 0.2 µM): 0.953
relative viability ([1]; first compound 0.6325 µM): 0.87
relative viability ([1]; first compound 2 µM): 0.86
relative viability ([2]; first compound 0.02 µM): 0.55
relative viability ([2]; first compound 0.06325 µM): 0.574
relative viability ([2]; first compound 0.2 µM): 0.689
relative viability ([2]; first compound 0.6325 µM): 0.626
relative viability ([2]; first compound 2 µM): 0.525
relative viability ([3]; first compound 0.02 µM): 0.802
relative viability ([3]; first compound 0.06325 µM): 0.838
relative viability ([3]; first compound 0.2 µM): 0.934
relative viability ([3]; first compound 0.6325 µM): 0.786
relative viability ([3]; first compound 2 µM): 0.855
relative viability ([4]; first compound 0.02 µM): 0.422
relative viability ([4]; first compound 0.06325 µM): 0.407
relative viability ([4]; first compound 0.2 µM): 0.48
relative viability ([4]; first compound 0.6325 µM): 0.411
relative viability ([4]; first compound 2 µM): 0.404

SK-LU-1
relative viability ([1]; first compound 0.02 µM): 0.432
relative viability ([1]; first compound 0.06325 µM): 0.518
relative viability ([1]; first compound 0.2 µM): 0.545
relative viability ([1]; first compound 0.6325 µM): 0.537
relative viability ([1]; first compound 2 µM): 0.525
relative viability ([2]; first compound 0.02 µM): 0.323
relative viability ([2]; first compound 0.06325 µM): 0.387
relative viability ([2]; first compound 0.2 µM): 0.4
relative viability ([2]; first compound 0.6325 µM): 0.348
relative viability ([2]; first compound 2 µM): 0.199
relative viability ([3]; first compound 0.02 µM): 0.902
relative viability ([3]; first compound 0.06325 µM): 0.815
relative viability ([3]; first compound 0.2 µM): 0.969
relative viability ([3]; first compound 0.6325 µM): 0.884
relative viability ([3]; first compound 2 µM): 0.67
relative viability ([4]; first compound 0.02 µM): 0.46
relative viability ([4]; first compound 0.06325 µM): 0.63
relative viability ([4]; first compound 0.2 µM): 0.586
relative viability ([4]; first compound 0.6325 µM): 0.523
relative viability ([4]; first compound 2 µM): 0.409

SK-MES-1
relative viability ([1]; first compound 0.02 µM): 0.526
relative viability ([1]; first compound 0.06325 µM): 0.528
relative viability ([1]; first compound 0.2 µM): 0.555
relative viability ([1]; first compound 0.6325 µM): 0.575
relative viability ([1]; first compound 2 µM): 0.459
relative viability ([2]; first compound 0.02 µM): 0.583
relative viability ([2]; first compound 0.06325 µM): 0.63
relative viability ([2]; first compound 0.2 µM): 0.681
relative viability ([2]; first compound 0.6325 µM): 0.719
relative viability ([2]; first compound 2 µM): 0.56
relative viability ([3]; first compound 0.02 µM): 0.928
relative viability ([3]; first compound 0.06325 µM): 0.996
relative viability ([3]; first compound 0.2 µM): 1.07
relative viability ([3]; first compound 0.6325 µM): 1.12
relative viability ([3]; first compound 2 µM): 0.959
relative viability ([4]; first compound 0.02 µM): 0.619
relative viability ([4]; first compound 0.06325 µM): 0.665
relative viability ([4]; first compound 0.2 µM): 0.689
relative viability ([4]; first compound 0.6325 µM): 0.655
relative viability ([4]; first compound 2 µM): 0.52

SW 1573
relative viability ([1]; first compound 0.02 µM): 0.522
relative viability ([1]; first compound 0.06325 µM): 0.626
relative viability ([1]; first compound 0.2 µM): 0.515
relative viability ([1]; first compound 0.6325 µM): 0.729
relative viability ([1]; first compound 2 µM): 0.582
relative viability ([2]; first compound 0.02 µM): 0.617
relative viability ([2]; first compound 0.06325 µM): 0.938
relative viability ([2]; first compound 0.2 µM): 0.779
relative viability ([2]; first compound 0.6325 µM): 0.781
relative viability ([2]; first compound 2 µM): 0.671
relative viability ([3]; first compound 0.02 µM): 0.736
relative viability ([3]; first compound 0.06325 µM): 0.855
relative viability ([3]; first compound 0.6325 µM): 0.976
relative viability ([3]; first compound 2 µM): 0.792
relative viability ([4]; first compound 0.02 µM): 0.338
relative viability ([4]; first compound 0.06325 µM): 0.449
relative viability ([4]; first compound 0.2 µM): 0.368
relative viability ([4]; first compound 0.6325 µM): 0.386
relative viability ([4]; first compound 2 µM): 0.306

UMC-11
relative viability ([1]; first compound 0.02 µM): 0.709
relative viability ([1]; first compound 0.06325 µM): 0.793
relative viability ([1]; first compound 0.2 µM): 0.811
relative viability ([1]; first compound 0.6325 µM): 0.787
relative viability ([1]; first compound 2 µM): 0.783
relative viability ([2]; first compound 0.02 µM): 0.401
relative viability ([2]; first compound 0.06325 µM): 0.526
relative viability ([2]; first compound 0.2 µM): 0.54
relative viability ([2]; first compound 0.6325 µM): 0.494
relative viability ([2]; first compound 2 µM): 0.462
relative viability ([3]; first compound 0.02 µM): 0.578
relative viability ([3]; first compound 0.06325 µM): 0.569
relative viability ([3]; first compound 0.2 µM): 0.571
relative viability ([3]; first compound 0.6325 µM): 0.692
relative viability ([3]; first compound 2 µM): 0.556
relative viability ([4]; first compound 0.02 µM): 0.331
relative viability ([4]; first compound 0.06325 µM): 0.352
relative viability ([4]; first compound 0.2 µM): 0.355
relative viability ([4]; first compound 0.6325 µM): 0.324
relative viability ([4]; first compound 2 µM): 0.309
